Results as given in ChEMBL document CHEMBL3046285, “Design and synthesis of new 1,2-diaryl-4,5,6,7-tetrahydro-1H-benzo[d] imidazoles as selective cyclooxygenase (COX-2) inhibitors” (Med Chem Res, 2012).

Biological target: T1, Prostaglandin G/H synthase 1 (Ovis aries, UniProt P05979)
T1 sequence (P05979 whole entry): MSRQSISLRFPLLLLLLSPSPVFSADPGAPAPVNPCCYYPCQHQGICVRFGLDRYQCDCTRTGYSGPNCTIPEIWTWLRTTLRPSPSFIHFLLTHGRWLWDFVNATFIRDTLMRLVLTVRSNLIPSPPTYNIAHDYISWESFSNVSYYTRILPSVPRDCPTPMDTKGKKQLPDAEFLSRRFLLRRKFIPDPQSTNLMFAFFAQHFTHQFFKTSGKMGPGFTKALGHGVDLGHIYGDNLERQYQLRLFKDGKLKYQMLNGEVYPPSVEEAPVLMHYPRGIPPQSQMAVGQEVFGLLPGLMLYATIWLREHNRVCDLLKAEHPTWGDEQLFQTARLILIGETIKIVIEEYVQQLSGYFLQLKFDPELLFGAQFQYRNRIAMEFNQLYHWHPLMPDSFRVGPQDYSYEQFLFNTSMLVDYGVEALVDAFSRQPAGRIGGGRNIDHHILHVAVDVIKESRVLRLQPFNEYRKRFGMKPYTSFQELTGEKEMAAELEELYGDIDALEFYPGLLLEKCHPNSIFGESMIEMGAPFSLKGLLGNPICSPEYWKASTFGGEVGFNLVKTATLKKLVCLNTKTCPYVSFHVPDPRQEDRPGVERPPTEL
Experiment: Inhibition of Ovis aries (sheep) COX1 using arachidonic acid as substrate using cyclic naphthalene hydrazide by chemiluminescence assay

| Structure (SMILES) | IC50 [µM] |
| --- | --- |
| CS(=O)(=O)c1ccc(-c2nc3c(n2-c2ccccc2)CCCC3)cc1 | 56.5 |
| CS(=O)(=O)c1ccc(-c2nc3c(n2-c2ccc(F)cc2)CCCC3)cc1 | 55.7 |
| CS(=O)(=O)c1ccc(-c2nc3c(n2-c2ccc(Cl)cc2)CCCC3)cc1 | 61.6 |
| Cc1ccc(-n2c(-c3ccc(S(C)(=O)=O)cc3)nc3c2CCCC3)cc1 | 40.1 |
| COc1ccc(-n2c(-c3ccc(S(C)(=O)=O)cc3)nc3c2CCCC3)cc1 | 42.2 |
| CC(=O)Nc1ccc(-n2c(-c3ccc(S(C)(=O)=O)cc3)nc3c2CCCC3)cc1 | 36.1 |
